Patent US20210228463A1, “COMPOSITION FOR FAT FORMATION INHIBITION AND BODY FAT REDUCTION, CONTAINING HYDRANGENOL AS ACTIVE INGREDIENT” (COSMAX BIO CO., LTD., priority 2019, published 2021)
One block for each compound: values may come before it.

How the values were obtained:
[1] = Body weight- and fat-reducing effects of HG in obese mice; format: in vivo; settings: obese mice (HFD); for changes in the body weight: oral administration at the same time with induction of obesity, 5 days per week for 12 weeks, FIG. 13; for body fat (dual-energy X-ray absorptiometry, fat weight): oral administration, 12 weeks, FIGS. 14 and 15
Description: To analyze in vivo anti-obesity efficacy of HG, animal models of obesity were prepared. 8-week-old male C57BL/6N mice (SPF grade, 20±2 g, Orient Bio) were set into 7 groups as follows, and 10 mice per each group were tested: as normal control groups, normal mice (con) with no high fat diet and no administration, and obese mice (HFD) with induction of obesity by 30% high fat diet and no administration, and as a positive control group, obese mice with oral administration of orlistat which is an anti-obesity agent. As experimental groups, obese mice with oral administration of HG of 20 mg/kg, 40 mg/kg, or 80 mg/kg, and normal mice with oral administration of HG of 80 mg/kg were used. Mice were administered with HG at the same time with induction of obesity, and HG was administered for 5 days per week for 12 weeks. A dark: light cycle was maintained at intervals of 12 hours: 12 hours, and mice were allowed to free access to water. An experiment was performed to analyze whether the body weight and fat of mice decreased when HG was administered. […] In addition, images of a fat distribution and body fat contents of mice of each experimental group were measured by dual-energy X-ray absorptiometry in the last week of the animal test. Each mice was sacrificed, and a visceral adipose tissue including epididymal fat was separated and a fat was weighed. The experimental results were tested for a significant difference between groups using a t-test in the Sigma plot statistical program (p#<0.05 vs normal control, p*<0.05, r<0.01, P***<0.001 vs obese group). As a result, it was confirmed that body fat was decreased in the positive control group and the HG-administered group (FIGS. 14 and 15).

[2] = Effects of HG on liver and kidney (serum GOT, GPT, BUN); format: in vivo, mice
Description: (§1) To analyze in vivo anti-obesity efficacy of HG, animal models of obesity were prepared. 8-week-old male C57BL/6N mice (SPF grade, 20±2 g, Orient Bio) were set into 7 groups as follows, and 10 mice per each group were tested: as normal control groups, normal mice (con) with no high fat diet and no administration, and obese mice (HFD) with induction of obesity by 30% high fat diet and no administration, and as a positive control group, obese mice with oral administration of orlistat which is an anti-obesity agent. As experimental groups, obese mice with oral administration of HG of 20 mg/kg, 40 mg/kg, or 80 mg/kg, and normal mice with oral administration of HG of 80 mg/kg were used. Mice were administered with HG at the same time with induction of obesity, and HG was administered for 5 days per week for 12 weeks. A dark: light cycle was maintained at intervals of 12 hours: 12 hours, and mice were allowed to free access to water. To examine whether HG induced liver and kidney damage, glutamic oxalacetic transaminase (GOT), glutamic pyruvate transaminase (GPT), and blood urea nitrogen (BUN) were measured by serum analysis using a biochemical analyzer (AU480 Chemistry Analyzer, Beckman coulter, Calif., USA).

[3] = Changes of blood triglyceride and blood cholesterol by HG; format: in vivo, mice; settings: blood
Description: as §1, with “analyze the effects of” for “examine whether”, “on blood triglyceride” for “induced liver and kidney damage, glutamic oxalacetic transaminase (GOT), glutamic pyruvate transaminase (GPT),”, “cholesterol, a hematological-biochemical test was performed” for “urea nitrogen (BUN) were measured by serum analysis”

[4] = Body weight- and fat-reducing effects of WHS in obese mice; format: in vivo; settings: obese mice (HFD)
Description: To analyze in vivo anti-obesity efficacy of WHS, animal models of obesity were first prepared. 8-week-old male C57BL/6N mice (specific-pathogen-free (SPF) grade, 20±2 g, Orient Bio) were set into 7 groups as follows, and 10 mice per each group were tested: as normal control groups, normal mice (con) with no high fat diet and no administration, and obese mice (HFD) with induction of obesity by 30% high fat diet and no administration, and as a positive control group, obese mice with oral administration of orlistat which is an anti-obesity agent. As experimental groups, obese mice with oral administration of WHS of 75 mg/kg, 150 mg/kg, or 300 mg/kg, and normal mice with oral administration of WHS of 300 mg/kg were used. Further, experiments were performed by dividing mice into those which were administered with WHS for 12 weeks at the same time with induction of obesity, and those which were administered with WHS after induction of obesity for 10 weeks. WHS was orally administered for 5 days per week during the administration period. A dark: light cycle was maintained at intervals of 12 hours: 12 hours, and mice were allowed to free access to water. […] In addition, images of a fat distribution and body fat contents of mice of each experimental group were measured by dual-energy X-ray absorptiometry in the last week of the animal test. […]

[5] = HG-administered group, Table 4 and FIG. 17
[6] = obese mice (HFD) + HG 20 mg/kg oral, 12 weeks
[7] = obese mice (HFD) + HG 40 mg/kg oral, 12 weeks
[8] = obese mice (HFD) + HG 80 mg/kg oral, 12 weeks
[9] = serum, obese mice (HFD) + oral orlistat
[10] = obese mice (HFD) + oral orlistat

GOT, GPT and BUN, difference between 7 groups ([2]; mouse, in vivo): no significant difference
SMILES: O=C1OC(c2ccc(O)cc2)Cc2cccc(O)c21 (stereo not shown) [HG, 8-hydroxy-3-(4-hydroxyphenyl)-3,4-dihydroisochromen-1-one]
changes in the body weight [1]: body weight-reducing effects were observed
body fat (dual-energy X-ray absorptiometry, fat weight) [1]: decreased
HDL level ([3]; HG-administered group, Table 4): no significant difference
triglyceride level ([3]; HG-administered group, Table 4): no significant difference
LDL [3, 5]: reduction
total cholesterol [3, 5]: reduction
CHOL ([3]; normal mice + HG 80 mg/kg oral): 96.20 mg/dL
HDL ([3]; normal mice + HG 80 mg/kg oral): 66.40 mg/dL
LDL ([3]; normal mice + HG 80 mg/kg oral): 5.70 mg/dL
TG ([3]; normal mice + HG 80 mg/kg oral): 80.10 mg/dL
CHOL [3, 6]: 126.78 mg/dL
HDL [3, 6]: 80.78 mg/dL
LDL [3, 6]: 7.78 mg/dL
TG [3, 6]: 74.63 mg/dL
CHOL [3, 7]: 112.56 mg/dL
HDL [3, 7]: 71.89 mg/dL
LDL [3, 7]: 7.38 mg/dL
TG [3, 7]: 58.89 mg/dL
CHOL [3, 8]: 110.14 mg/dL
HDL [3, 8]: 71.20 mg/dL
LDL [3, 8]: 7.13 mg/dL
TG [3, 8]: 63.78 mg/dL

BUN [2, 9]: 19.89 mg/dL
GOT [2, 9]: 63 U/L
GPT [2, 9]: 17.6 U/L
SMILES: CCCCCCCCCCC[C@@H](C[C@@H]1OC(=O)[C@H]1CCCCCC)OC(=O)[C@H](CC(C)C)NC=O [Orlistat, orlistat]
changes in the body weight ([4]; oral administration at the same time with induction of obesity (12 weeks) or after induction of obesity (10 weeks), FIGS. 4 and 5): body weight-reducing effects were observed
body fat (dual-energy X-ray absorptiometry, fat weight) ([4]; oral administration at the same time with or after induction of obesity, FIGS. 6, 7, 8, and 9): decreased
changes in the body weight [1]: body weight-reducing effects were observed
body fat (dual-energy X-ray absorptiometry, fat weight) [1]: decreased
CHOL [3, 10]: 115.63 mg/dL
HDL [3, 10]: 83.70 mg/dL
LDL [3, 10]: 8.60 mg/dL
TG [3, 10]: 76.40 mg/dL
